Consider 74 molecules from ChEMBL document CHEMBL3507680, “University of Dundee, Gates Library screen for HepG2 cell viability”.

Each structure is given as a SMILES string.

This data set can be described thus: Human HepG2 cell viability assay in 384 well format. On the set-up: dose 125 nL, time 70.5 hour; cytotoxicity at 70.5 h: concentration not given beside the values. The settings on record: HepG2 cells, read-out: Inhibition. Format: toxicity, cell-based.

On to `O=C(Nc1ccc(N2CCCCC2)nc1)N1CCc2sccc2C1`, for which the cytotoxicity at 70.5 h was found to be 16.2%.

For `COc1cc(CN(C)C(=O)NCCC(=O)NC2CCCC2)ccc1SC`, the cytotoxicity at 70.5 h came to 14.4%.

`Cc1ccc(C(=O)NCCCN(C(C)C)S(C)(=O)=O)c(=O)[nH]1`: the cytotoxicity at 70.5 h is -5.61%.

For the molecule `Cc1ccc(C(=O)NCCCS(=O)(=O)c2ccccc2)c(=O)[nH]1`, the cytotoxicity at 70.5 h is -4.85%.

Consider `CN(C)c1ccc(NC(=O)N2CCc3sccc3C2)cn1`, for which the cytotoxicity at 70.5 h came to 4.85%.

`O=C(c1cc2c([nH]c1=O)CCC2)N1CCCC1c1cccnc1` (centres undefined): the cytotoxicity at 70.5 h was 14.6%.

With `CC(C)n1c(C2CCCN(CC(=O)NC(N)=O)C2)nc2ccccc21` (centres undefined), the cytotoxicity at 70.5 h is -1.95%.

For `COCCNC(=O)Nc1cc2c(cc1SC)OCCO2`, the cytotoxicity at 70.5 h was -4.52%.

As to `CCc1nc(CCNC(=O)C2CC2)sc1C`, the cytotoxicity at 70.5 h was -1.22%.

As for `c1cc(CCN2CCC(NCc3ccsc3)CC2)ccn1`, the cytotoxicity at 70.5 h is 15.8%.

For the molecule `CSc1cc2c(cc1NC(=O)NCC1CCOC1)OCCO2` (centres undefined), the cytotoxicity at 70.5 h was -1.8%.

For `CC(CNC(=O)N1CCNC(=O)CC1)Cc1cccs1` (centres undefined), the cytotoxicity at 70.5 h stood at 0.139%.

As for `CSc1ccc(CNC2CCN(CCc3ccncc3)CC2)cc1`, the cytotoxicity at 70.5 h was -1.82%.

For the molecule `Cc1occc1-c1nc(-c2cccc(CN3CCOCC3)c2)no1`, the cytotoxicity at 70.5 h stood at 0.585%.

On to `CCSC1(CNc2ncc(Br)cn2)CCOCC1`, for which the cytotoxicity at 70.5 h was -5.62%.

As for `COc1cccc(CNc2cc(C)nc(-c3ccncc3)n2)c1O`, the cytotoxicity at 70.5 h was -7.57%.

As for `Cc1cc(-c2nc(-c3cccc(CN4CCOCC4)c3)no2)no1`, the cytotoxicity at 70.5 h came to 0.395%.

As to `Cc1c(-c2nc(-c3cccc(CN4CCOCC4)c3)no2)cnn1C`, the cytotoxicity at 70.5 h is -13.7%.

As for `CCCc1nc(CNc2cccc(C(=O)N3CCCC(O)C3)c2)no1` (centres undefined), the cytotoxicity at 70.5 h was -4.84%.

Take `FC(F)(F)c1cccnc1N1CCC(OC2CCOCC2)CC1`: the cytotoxicity at 70.5 h was -6.19%.

Turning to `O=C(N1CCC(Oc2ccncc2)C1)C1(c2ccc(F)cc2)CC1` (centres undefined), the cytotoxicity at 70.5 h is 5.93%.

Take `CS(=O)(=O)Cc1nc(CNc2c(F)cc(F)cc2F)cs1`: the cytotoxicity at 70.5 h was -2.82%.

In the case of `CS(=O)(=O)Cc1nc(CNc2ccc(F)c(F)c2)cs1`, the cytotoxicity at 70.5 h was -6.66%.

Take `Cc1ccc2cc(C(=O)N3CCCCC3c3nc[nH]n3)ccc2n1` (centres undefined): the cytotoxicity at 70.5 h is 11.1%.

Consider `NS(=O)(=O)CC1CCN(c2ncccc2C(F)(F)F)CC1`, for which the cytotoxicity at 70.5 h was 7.95%.

As to `O=C(N1CCC(Oc2ccncc2)C1)C1(c2ccccc2F)CC1` (centres undefined), the cytotoxicity at 70.5 h was -16.9%.

With `CCCc1nn(C2CCN(C3CC3)C2=O)c(=O)o1` (centres undefined), the cytotoxicity at 70.5 h is -5.48%.

For the molecule `CCCc1nn(C2CCCN(C(C)C)C2=O)c(=O)o1` (centres undefined), the cytotoxicity at 70.5 h is -9.22%.

Take `Cc1noc(CNc2ccccc2C(=O)N2CCCC(O)C2)n1` (centres undefined): the cytotoxicity at 70.5 h worked out at 5.5%.

For `Cc1n[nH]c(C2CN(CCCOc3cccc(Cl)c3)CCO2)n1` (centres undefined), the cytotoxicity at 70.5 h is -14.2%.

Regarding `CC(=O)N1CCC(CCNC(C)Cc2ccc(F)cc2)CC1` (centres undefined), the cytotoxicity at 70.5 h was -13.1%.

On to `CC(CCSc1ccccc1)N1CCN(C(=O)c2cccs2)CC1` (centres undefined), for which the cytotoxicity at 70.5 h is 35.4%.

With `CC(CCSc1ccccc1)N1CCN(C(=O)c2ccccc2O)CC1` (centres undefined), the cytotoxicity at 70.5 h was found to be 36.1%.

As for `CNC(=O)C1CCN(Cc2cc3c(cc2O)CCC3)CC1`, the cytotoxicity at 70.5 h came to 27%.

For the molecule `c1ccn2cc(CN3CCCC(c4ccn[nH]4)C3)nc2c1` (centres undefined), the cytotoxicity at 70.5 h worked out at 25.3%.

Regarding `COC(=O)NCC(=O)NC1CC(C)(C)Cc2oc(C)cc21` (centres undefined), the cytotoxicity at 70.5 h amounted to 1.57%.

`CCNC(=O)N(Cc1cccc(OC)c1)C1CCC(O)CC1` (centres undefined): the cytotoxicity at 70.5 h came out at 2.57%.

As to `CC(C)(C)c1cc(NC(=O)CN2CCCC2Cn2cncn2)on1` (centres undefined), the cytotoxicity at 70.5 h was determined as 21.1%.

For the molecule `CCN(C(=O)c1ccc(-c2ccccc2)nc1C)C1CC(=O)NC1=O` (centres undefined), the cytotoxicity at 70.5 h is -5.68%.

Consider `CC(C)(C)NS(=O)(=O)c1ccccc1CNCc1cccc(O)c1`, for which the cytotoxicity at 70.5 h is 3.89%.

Take `CC(C)NS(=O)(=O)c1ccccc1CNCc1cccc(O)c1`: the cytotoxicity at 70.5 h is -3.47%.

As for `O=C(c1ncoc1C1CCCO1)N1CCCC2(CCCCC2)C1` (centres undefined), the cytotoxicity at 70.5 h was -2.37%.

As for `Cc1n[nH]c(C2CN(C(=O)c3cc(C)sc3C)CCO2)n1` (centres undefined), the cytotoxicity at 70.5 h is -6.3%.

As to `CCC(NC(=O)Nc1ccc(OC)c(C)c1)c1ccncc1` (centres undefined), the cytotoxicity at 70.5 h is -4.85%.

Take `O=C(NC1CC1)NC(c1ccc(F)cc1)C1CC1` (centres undefined): the cytotoxicity at 70.5 h was -7.03%.

Regarding `O=C(NCCCOC1CCOC1)NC(C1CC1)C1CC1` (centres undefined), the cytotoxicity at 70.5 h was found to be 5.31%.

Regarding `CCC(c1ccccc1)N1CCN(C(=O)c2cc(C(N)=O)c[nH]2)CC1` (centres undefined), the cytotoxicity at 70.5 h is -4.98%.

With `O=C(Nc1cccn(CC(F)(F)F)c1=O)c1ccc(F)cc1`, the cytotoxicity at 70.5 h is 19.4%.

As to `Cc1ccc(C(C)(O)CNC(=O)c2sccc2Br)o1` (centres undefined), the cytotoxicity at 70.5 h turned out to be 4.05%.

Turning to `O=C(Nc1nncs1)N(Cc1cccc(O)c1)C1CC1`, the cytotoxicity at 70.5 h was -4.79%.

As for `Cc1cccn2cc(CN3CCCC(O)C3)nc12` (centres undefined), the cytotoxicity at 70.5 h was -2.97%.

Regarding `CC(C)OCCN1CCN(C(=O)c2cccc(-n3cccn3)n2)CC1`, the cytotoxicity at 70.5 h was -0.664%.

Take `COCCN(C)c1ccc(NCc2cscn2)nc1`: the cytotoxicity at 70.5 h worked out at 24.9%.

For the molecule `CCn1cc(CNc2ccc(N(C)CCOC)cn2)cn1`, the cytotoxicity at 70.5 h is -2.51%.

As to `CCC1CN(c2cnn(C)c(=O)c2Cl)CCO1` (centres undefined), the cytotoxicity at 70.5 h was determined as 5.82%.

For `Cc1ncsc1CCN1CCN(C(=O)c2ccc(=O)[nH]c2)CC1`, the cytotoxicity at 70.5 h was -1.09%.

For `O=C(NCCn1ccnc1)c1cccc(Br)c1`, the cytotoxicity at 70.5 h is -13%.

`O=C(NCCn1ccnc1)c1cc(Br)c[nH]1`: the cytotoxicity at 70.5 h was -8.18%.

Regarding `O=C(NCCn1ccnc1)c1cc(F)cc(Br)c1`, the cytotoxicity at 70.5 h was -8.01%.

As to `Cc1nc(C2(NCc3ccc(C#N)cc3F)CCCCC2)no1`, the cytotoxicity at 70.5 h was -1.37%.

Regarding `CNC(=O)c1ccc(=O)n(Cc2csc(N(C)C(C)=O)n2)c1`, the cytotoxicity at 70.5 h is -2.61%.

In the case of `CC(C)(C)CNS(=O)(=O)C1CS(=O)(=O)c2ccccc21` (centres undefined), the cytotoxicity at 70.5 h was determined as 16.6%.

As for `O=C(NCCn1ccnc1)c1csc(Br)c1`, the cytotoxicity at 70.5 h stood at 16.5%.

On to `N#CCCCS(=O)(=O)N1CCC(CSc2ccccc2)C1` (centres undefined), for which the cytotoxicity at 70.5 h is -9.53%.

On to `O=C(NC1CCCN(c2ccc(OC(F)F)cc2)C1)c1ccon1` (centres undefined), for which the cytotoxicity at 70.5 h is -1.24%.

Consider `CSc1ccc(CNc2ccccc2CN2CCC(O)CC2)cc1`, for which the cytotoxicity at 70.5 h was -3.71%.

Take `O=C(Nc1ccccc1Cn1cncn1)C1CCN(C2CCCCC2)C1` (centres undefined): the cytotoxicity at 70.5 h is -5.06%.

On to `O=C(NC1CCCN(c2ccc(OC(F)F)cc2)C1)c1cc[nH]n1` (centres undefined), for which the cytotoxicity at 70.5 h is -11.9%.

As to `O=S(=O)(CCO)Cc1ccc(OC(F)F)cc1`, the cytotoxicity at 70.5 h was -5.07%.

Turning to `Cn1cc(C#N)cc1C(=O)NC1(C#N)CCSCC1`, the cytotoxicity at 70.5 h was -4.89%.

With `CNC(=O)Cc1ccccc1NC(=O)C1CCN(C2CCCCC2)C1` (centres undefined), the cytotoxicity at 70.5 h was -7.23%.

As to `Cc1cc(C(=O)NC2(C#N)CCSCC2)n(C)n1`, the cytotoxicity at 70.5 h is -5.82%.

Consider `CC(C)c1nc2c(n1C)CCN(CC(=O)NCc1ccccn1)C2`, for which the cytotoxicity at 70.5 h is -0.491%.

As to `COc1cc(OC)cc(C2(O)CCN(Cc3nc(C)c(C)o3)CC2)c1`, the cytotoxicity at 70.5 h was found to be 0.268%.
